Results reported in US12310364B2, “Safened compositions comprising pyridine carboxylate herbicides and cloquintocet” (Corteva Agriscience LLC, priority 2018, dated 2025).

Experiments:
Assay type in all cases: in vivo
[1] = test system: common sunflower (HELAN, Helianthus annuus); assay: Greenhouse postemergence trial, visual injury on common sunflower; conditions: Table 18
Text: (§1) Greenhouse Trial Methodology—Evaluation of Postemergence Herbicidal Safening in Crops
(§2) Seeds of the desired test plant species were planted in a 90:10% v/v (volume/volume) mixture of PRO-MIX® BX (Premier Tech Horticulture, Quakertown, PA, USA) and PROFILE® GREENS GRADE™ (Profile Products LLC, Buffalo Grove, IL, USA) planting mixture, which typically has a pH of 5.2 to 6.2 and an organic matter content of at least 50 percent, in plastic pots with a surface area of 103.2 square centimeters (cm^2). When required to ensure good germination and healthy plants, a fungicide treatment and/or other chemical or physical treatment was applied. The plants were grown for 7-36 days (d) in a greenhouse with an approximate 14-hour (h) photoperiod which was maintained at about 23° C. during the day and 22° C. during the night. Nutrients and water were added on a regular basis and supplemental lighting was provided with overhead metal halide 1000-Watt lamps as necessary. The plants were employed for testing when they reached the second or third true leaf stage.
(§3) Emulsifiable concentrates of each of each pyridine carboxylate herbicide (Compound A or Compound B) were prepared at 100 grams acid equivalent per liter (g ae/L). An aliquot of each emulsifiable concentrate was placed in a 25 mL glass vial and diluted with an aqueous mixture of 1.25% (v/v) ACTIROB® B esterified rapeseed oil (Bayer Crop Science, Research Triangle Park, NC, USA) or MSO® Concentrate with LECI-TECH® methylated soybean oil (Loveland Products, Loveland, CO, USA) to obtain concentrated stock solutions at the highest application rate for each herbicide, based upon a 12 milliliter (mL) application volume at a rate of 187 liters per hectare (L/ha). The concentrated stock solutions were further diluted with an aqueous mixture of 1.25% v/v ACTIROB® B or MSO® Concentrate with LECI-TECH® to obtain stock solutions at reduced application rates for each herbicide. Spray solutions of the herbicide combinations (Compound A or Compound B plus safener) were prepared by adding weighed amounts or aliquots of the safener to the stock solutions of Compound A or Compound B to form 12-mL spray solutions in two-way combinations.
(§4) The spray solutions were applied to the plant material with an overhead Mandel track sprayer equipped with 8002E nozzles calibrated to deliver 187 L/ha over an application area of 0.503 square meters (m^2) at a spray height of 18 inches (43 centimeters (cm)) above the average plant canopy. Control plants were sprayed in the same manner with the solvent blank. All herbicide (component a) application rates are given as “g ae/ha” and all safener (component b) application rates are given as “g ai/ha.”
(§5) The treated plants and control plants were placed in a greenhouse as described above and watered by sub-irrigation to prevent wash-off of the test compounds. After 20-22 d, the condition of the test plants as compared with that of the control plants was determined visually and scored on a scale of 0 to 100 percent where 0 corresponds to no injury and 100 corresponds to complete kill.

[2] = test system: Sinapis arvensis (wild mustard), SINAR; assay: Greenhouse postemergence trial, visual injury on wild mustard
Text: as §1, §2, §3, §4, §5

[3] = test system: Triticum aestivum (durum wheat), TRZDU; assay: Greenhouse postemergence safening trial, visual injury on durum wheat
Experimental: (§6) Greenhouse Trial Methodology-Evaluation of Postemergence Herbicidal […] in Crops […] When required to ensure good germination and healthy plants, a fungicide treatment and/or other chemical or physical treatment was applied. The plants were grown for 7-36 days (d) in a greenhouse with an approximate 14-hour (h) photoperiod which was maintained at about 23° C. during the day and 22° C. during the night. Nutrients and water were added on a regular basis and supplemental lighting was provided with overhead metal halide 1000-Watt lamps as necessary. The plants were employed for testing when they reached the second or third true leaf stage. Emulsifiable concentrates of each of each pyridine carboxylate herbicide (Compound A or Compound B) were prepared at 100 grams acid equivalent per liter (g ae/L). […] The concentrated stock solutions were further diluted with an aqueous mixture of 1.25% […] or MSO® Concentrate with LECI-TECH® to obtain stock solutions at reduced application rates for each herbicide. Spray solutions of the herbicide combinations (Compound A or Compound B plus safener) were prepared by adding weighed amounts or aliquots of the safener to the stock solutions of Compound A or Compound B to form 12-mL spray solutions in two-way combinations. […] Control plants were sprayed in the same manner with the solvent blank. All herbicide (component a) application rates are given as “g ae/ha” and all safener (component b) application rates are given as “g ai/ha.” The treated plants and control plants were placed in a greenhouse as described above and watered by sub-irrigation to prevent wash-off of the test compounds.

[4] = test system: Matricaria inodora (false chamomile), MATIN; assay: Greenhouse postemergence trial, visual injury on false chamomile
Text: as §1, §2, §3, §4, §5

[5] = test system: Hordeum vulgare (winter barley), HORVW; assay: Greenhouse postemergence safening trial, visual injury on winter barley
Experimental: as §6

[6] = test system: pigweed (AMARE, Amaranthus retroflexus); assay: Greenhouse postemergence trial, visual injury on pigweed; conditions: Table 18
Text: as §1, §2, §3, §4, §5

[7] = test system: Anthemis arvensis (field chamomile), ANTAR; assay: Greenhouse postemergence trial, visual injury on field chamomile
Text: as §1, §2, §3, §4, §5

[8] = test system: maize (ZEAMX); assay: Greenhouse postemergence safening trial, visual injury on maize; conditions: Table 18
Text: as §1, §2, §3, §4, §5

[9] = test system: Avena sativa (common oat), AVESA; assay: Greenhouse postemergence safening trial, visual injury on common oat
Experimental: as §6

[10] = test system: nutsedge (CYPES, Cyperus esculentus); assay: Greenhouse postemergence trial, visual injury on nutsedge; conditions: Table 18
Text: as §1, §2, §3, §4, §5

[11] = test system: Triticum aestivum (spring wheat), TRZAS; assay: Greenhouse postemergence safening trial, visual injury on spring wheat
Experimental: as §6

[12] = test system: Hordeum vulgare (spring barley), HORVS; assay: Greenhouse postemergence safening trial, visual injury on spring barley
Experimental: as §6

[13] = test system: Triticum aestivum (winter wheat), TRZAW; assay: Greenhouse postemergence safening trial, visual injury on winter wheat
Experimental: as §6

[14] = test system: Brassica napus (winter rape), BRSNW; assay: Greenhouse postemergence trial, visual injury on winter rape
Experimental: as §6

[15] = test system: Polygonum convulvus (wild buckwheat), POLCO; assay: Greenhouse postemergence trial, visual injury on wild buckwheat; conditions: herbicide alone 20 g/ha
Text: as §1, §2, §3, §4, §5

[16] = test system: Fagopyrum esculentum (common buckwheat), FAGES; assay: Greenhouse postemergence trial, visual injury on common buckwheat; conditions: herbicide alone 20 g/ha
Text: as §1, §2, §3, §4, §5

[17] = test system: Salsola kali (Russian thistle), SASKR; assay: Greenhouse postemergence trial, visual injury on Russian thistle; conditions: herbicide alone 20 g/ha
Experimental: as §6

O=C(O)COc1ccc(Cl)c2cccnc12 [CQC-a, cloquintocet-acid]
% visual injury, Ob ([1]; CQC-a 20 g/ha alone): 0% | % visual injury, Ob ([1]; CQC-a 40 g/ha alone): 0% | % visual injury, Ob ([1]; CQC-a 80 g/ha alone): 0% | % visual injury, Ob ([1]; CQC-a 120 g/ha alone): 0% | % visual injury, Ob ([2]; safener alone 10 g/ha): 0% | % visual injury, Ob ([2]; safener alone 20 g/ha): 0% | % visual injury, Ob ([2]; safener alone 40 g/ha): 0% | % visual injury, Ob ([2]; safener alone 80 g/ha): 0% | % visual injury, Ob ([3]; safener alone 40 g/ha): 0% | % visual injury, Ob ([4]; safener alone 10 g/ha): 0% | % visual injury, Ob ([4]; safener alone 20 g/ha): 0% | % visual injury, Ob ([4]; safener alone 40 g/ha): 0% | % visual injury, Ob ([4]; safener alone 80 g/ha): 0% | % visual injury, Ob ([5]; safener alone 5 g/ha): 0% | % visual injury, Ob ([5]; safener alone 10 g/ha): 0% | % visual injury, Ob ([5]; safener alone 20 g/ha): 0% | % visual injury, Ob ([5]; safener alone 40 g/ha): 0% | % visual injury, Ob ([5]; safener alone 80 g/ha): 0% | % visual injury, Ob ([6]; CQC-a 20 g/ha alone): 0% | % visual injury, Ob ([6]; CQC-a 40 g/ha alone): 0% | % visual injury, Ob ([6]; CQC-a 80 g/ha alone): 0% | % visual injury, Ob ([6]; CQC-a 120 g/ha alone): 0% | % visual injury, Ob ([7]; safener alone 5 g/ha): 0% | % visual injury, Ob ([7]; safener alone 10 g/ha): 0% | % visual injury, Ob ([7]; safener alone 20 g/ha): 0% | % visual injury, Ob ([7]; safener alone 40 g/ha): 0% | % visual injury, Ob ([8]; CQC-a 20 g/ha alone): 0% | % visual injury, Ob ([8]; CQC-a 40 g/ha alone): 0% | % visual injury, Ob ([8]; CQC-a 80 g/ha alone): 0% | % visual injury, Ob ([8]; CQC-a 120 g/ha alone): 0% | % visual injury, Ob ([9]; safener alone 40 g/ha): 0% | % visual injury, Ob ([10]; CQC-a 20 g/ha alone): 0% | % visual injury, Ob ([10]; CQC-a 40 g/ha alone): 0% | % visual injury, Ob ([10]; CQC-a 80 g/ha alone): 0% | % visual injury, Ob ([10]; CQC-a 120 g/ha alone): 0% | % visual injury, Ob ([11]; safener alone 5 g/ha): 0% | % visual injury, Ob ([11]; safener alone 10 g/ha): 0% | % visual injury, Ob ([11]; safener alone 20 g/ha): 0% | % visual injury, Ob ([11]; safener alone 40 g/ha): 0% | % visual injury, Ob ([11]; safener alone 80 g/ha): 0% | % visual injury, Ob ([11]; safener alone 120 g/ha): 0% | % visual injury, Ob ([12]; safener alone 5 g/ha): 0% | % visual injury, Ob ([12]; safener alone 10 g/ha): 0% | % visual injury, Ob ([12]; safener alone 20 g/ha): 0% | % visual injury, Ob ([12]; safener alone 40 g/ha): 0% | % visual injury, Ob ([12]; safener alone 80 g/ha): 0% | % visual injury, Ob ([12]; safener alone 120 g/ha): 0% | % visual injury, Ob ([13]; safener alone 5 g/ha): 0% | % visual injury, Ob ([13]; safener alone 10 g/ha): 0% | % visual injury, Ob ([13]; safener alone 20 g/ha): 0% | % visual injury Δ ([13]; safener alone 40 g/ha): 0% | % visual injury, Ob ([13]; safener alone 40 g/ha): 0% | % visual injury, Ob ([13]; safener alone 80 g/ha): 0% | % visual injury, Ob ([13]; safener alone 120 g/ha): 0% | % visual injury, Ob ([14]; safener alone 5 g/ha): 0% | % visual injury, Ob ([14]; safener alone 10 g/ha): 0% | % visual injury, Ob ([14]; safener alone 20 g/ha): 0% | % visual injury, Ob ([14]; safener alone 40 g/ha): 0%

C#CCOC(=O)c1nc(-c2ccc3cc[nH]c3c2F)c(F)c(N)c1Cl [Compound B, propargyl 4-amino-3-chloro-5-fluoro-6-(7-fluoro-1H-indol-6-yl)pyridine-2-carboxylate]
% visual injury, Ob ([2]; herbicide alone 20 g/ha): 80% | % visual injury, Ob ([3]; herbicide alone 40 g/ha): 40% | % visual injury, Ob [15]: 100% | % visual injury Δ ([5]; herbicide alone 40 g/ha): 0% | % visual injury, Ob ([5]; herbicide alone 40 g/ha): 38% | % visual injury, Ob [16]: 78% | % visual injury, Ob [17]: 70% | % visual injury, Ob ([9]; herbicide alone 40 g/ha): 0% | % visual injury, Ob ([11]; herbicide alone 20 g/ha): 28% | % visual injury, Ob ([11]; herbicide alone 40 g/ha): 48% | % visual injury, Ob ([12]; herbicide alone 20 g/ha): 30% | % visual injury, Ob ([12]; herbicide alone 40 g/ha): 25% | % visual injury, Ob ([13]; herbicide alone 40 g/ha): 50% | % visual injury, Ob ([14]; herbicide alone 20 g/ha): 100%
